The text below walks through data of US20210379589A1, “Microfluidic Chip For Analysis Of Cell Motility And Methods For Using Same” (The Johns Hopkins University, priority 2013, published 2021).

One test concerns MDA-MB-231 cells. Kind of test: Microchannel migration device assay, MDA-MB-231 cells. In kind it is cell-based, human. As to the method:
Cell seeding and live cell migration experiments: Cells were grown to continency, trypsinized, and resuspended in serum-free medium at 2×10^6 cells/ml. 50 μl of cell suspension was added to the cell inlet well. Cells were incubated in the device for 5-10 minutes at 37° C. to allow initial cell seeding at the base of “Y” channels. The cell suspension was then removed from the cell inlet port. The device was washed with DPBS before the addition of medium to the inlet ports of the device. In select experiments, PI3K activity was inhibited by the addition of 10 μM LY294002 in the medium through the entire course of migration. The migration chamber was moved to a temperature- and CO2-controlled stage-top live cell incubator (Okolab, Italy) mounted on the motorized stage of an inverted Nikon Eclipse Ti microscope (Nikon, Tokyo, Japan) with automated controls (NIS-Elements, Nikon). Migrating cells were imaged with a 10×-magnification phase contrast objective every 10 minutes for up to 16 hours. Analysis of Cell Migration: Video tiles were exported to Image1 for analysis. All cells that entered the channel were tracked while fully inside the channel and before reaching either end of the channel using the lmageJ MTrackJ plugin at 10 minute intervals. Cells were also dynamically traced with the imageJ polygon ROI capability at 30 minute intervals. Dividing cells were not tracked. Cell position data were used to calculate cell speed over each 10 minute interval, and these speeds were averaged to get an overall average speed for each cell. Additionally, the chemotactic index, defined as the cell displacement divided by the total distance travelled by the cell, was calculated. Cell shape data were used to calculate cell circularity and fit elliptical angle using the Measure function in ImageJ Statistical significance was assessed with non-paired Student's t-test. Cells were further defined as migratory or non-migratory. Migratory cells were defined as those cells which reached the bifurcation in the Y-shaped microchannel; all other cells were defined as non-migratory. […]

The next test has as its system Hs578t cells. Kind of test: Microchannel migration device assay, Hs578t cells. In kind it is cell-based. The settings on record: 10 μM LY294002, 400 μm-long Y-shaped migration channels; control 20±7%. As to the method:
(§1) Cell seeding and live cell migration experiments: Cells were grown to continency, trypsinized, and resuspended in serum-free medium at 2×10^6 cells/ml. 50 μl of cell suspension was added to the cell inlet well. Cells were incubated in the device for 5-10 minutes at 37° C. to allow initial cell seeding at the base of “Y” channels. The cell suspension was then removed from the cell inlet port. The device was washed with DPBS before the addition of medium to the inlet ports of the device. In select experiments, PI3K activity was inhibited by the addition of 10 μM LY294002 in the medium through the entire course of migration. The migration chamber was moved to a temperature- and CO2-controlled stage-top live cell incubator (Okolab, Italy) mounted on the motorized stage of an inverted Nikon Eclipse Ti microscope (Nikon, Tokyo, Japan) with automated controls (NIS-Elements, Nikon). Migrating cells were imaged with a 10×-magnification phase contrast objective every 10 minutes for up to 16 hours. Analysis of Cell Migration: Video tiles were exported to Image1 for analysis. All cells that entered the channel were tracked while fully inside the channel and before reaching either end of the channel using the lmageJ MTrackJ plugin at 10 minute intervals. Cells were also dynamically traced with the imageJ polygon ROI capability at 30 minute intervals. Dividing cells were not tracked. […]

The subject of the next test is Bt549 cells. Kind of test: Microchannel migration device assay, Bt549 cells. In kind it is cell-based. The settings on record: 10 μM LY294002, 400 μm-long Y-shaped migration channels; control 32±8%. As to the method:
as §1

Each structure is given as a SMILES string.

Turning to `O=c1cc(N2CCOCC2)oc2c(-c3ccccc3)cccc12` [LY294002], the migratory cell population with MDA-MB-231 cells (10 μM LY294002, 200 μm-long microchannels, control 25%) came out at 65%. Moreover, in the test on MDA-MB-231 cells (10 μM LY294002, 200 μm-long microchannels, control 66%), the “ratio of contact guided cells” value amounted to 93%. In addition, the “percentage of migratory cells” value is 34±8% in the test on MDA-MB-231 cells (10 μM LY294002, 400 μm-long Y-shaped migration channels, control 22±3%); 15±2% with Hs578t cells; 19±1% with Bt549 cells.
